The results in this text go back to publication PMC7235175, “Analysis of Pigment-Dispersing Factor Neuropeptides and Their Receptor in a Velvet Worm” (Frontiers in Endocrinology, 2020).

“Also recorded” adds a separate entry of the source.

In the test the test system is PDF receptor Er-PDFR of E. rowelli. Description: BRET assay: cAMP response (Epac-L sensor) of HEK293T cells transfected with Er-PDFR. The class given is cell-based, Euperipatoides rowelli. The following applies: for activation of Er-PDFR (cAMP response) / potency of PDF-II relative to PDF-I as activating ligand: HEK293T, Epac-L BRET, n = 8; for activation of Er-PDFR (cAMP response): Rm-MIP7 as control (unrelated peptide); for potency of PDF-II relative to PDF-I as activating ligand: comparison of activation by the two peptides. Here is the method: HEK293T cells were seeded on 96-well Nunc plates (Thermo Fisher Scientific, Waltham, MA, USA) at a density of 2 ×10^4 cells/well and cultured in DMEM high glucose (Sigma-Aldrich Chemie GmbH, Munich, Germany) supplemented with 10% fetal bovine serum and 5% CO2 at 37°C. After 24 h, cells were transfected using polyethyleneimine (25 kDa PEI, linear; Polysciences Europe GmbH, Hirschberg an der Bergstrasse, Germany) with GFP2-hEpac1E157-P881-Rluc8 [Epac-L; modified from ([83]–[85])] and pcDNA3.1-ErPDFR-3K10 in a 1:1 ratio (100 ng total DNA/well). Cells were washed with HBSS (Thermo Fisher Scientific) 2 days after transfection and stimulated with different concentrations of synthetic PDF peptides (10^−11 to 10^−5 M final concentration) together with the substrate coelenterazine 400A (“DeepBlueC”; BIOTREND Chemikalien GmbH, Cologne, Germany) at a final concentration of 5 μM in a total volume of 50 μL HBSS. Control experiments were conducted with cells expressing Epac-L alone, stimulation without PDF peptides, stimulation using an unrelated peptide (myoinhibitory peptide 7 from the cockroach Rhyparobia maderae), and stimulation with forskolin (50 μM final concentration; Sigma-Aldrich Chemie GmbH) + IBMX (100 μM final concentration; Sigma-Aldrich Chemie GmbH), respectively. The raw luminescence was measured immediately after stimulation at wavelengths of 410 ± 80 nm for the donor and 515 ± 30 nm for the acceptor in eight biological replicates for each tested PDF peptide concentration (n = 8) using a POLARstar Omega microplate reader (BMG Labtech, Cary, NC, USA). Their ratios [emission (410 nm)/emission (515 nm)] were box plotted as relative luminescence against the respective PDF concentration in dose response curves.

“CNAELINSLLGLPKMMNDA-NH2 [Er-PDF-I, HPLC-purified synthetic pigment-dispersing factor peptide I of Euperipatoides rowelli]”: the “activation threshold (minimum concentration required for PDFR stimulation)” value (HEK293T cells co-transfected with Epac-L and pcDNA3.1-ErPDFR-3K10 (1:1), peptide 10^−11 to 10^−5 M, coelenterazine 400A 5 μM in HBSS, emission 410/515 nm read immediately after stimulation, n = 8 biological replicates) is 10^−6 M. Also, the “activation of Er-PDFR (cAMP response)” value (peptide 10^−11 to 10^−5 M) is “activated by both PDF peptides of E. rowelli, Er-PDF-I and Er-PDF-II, in a dose-dependent manner; also recorded: activated by Er-PDF-I and Er-PDF-II in a distinct and dose-dependent manner”.
Regarding “CNAELINSLLNLPQKLQEA-NH2 [Er-PDF-II, HPLC-purified synthetic pigment-dispersing factor peptide II of Euperipatoides rowelli]”, the “potency of PDF-II relative to PDF-I as activating ligand” value is listed as “one order of magnitude more potent than Er-PDF-I”. The “potency of PDF-II relative to PDF-I as activating ligand” value (listed as PDF-II) was “tenfold higher potency than PDF-I”. Moreover, the “activation of Er-PDFR (cAMP response)” value (peptide 10^−11 to 10^−5 M) was “activated by both PDF peptides of E. rowelli, Er-PDF-I and Er-PDF-II, in a dose-dependent manner; also recorded: activated by Er-PDF-I and Er-PDF-II in a distinct and dose-dependent manner”.
